IC50 and inhibition data for 33 molecules are collected here from patent US20090124672A1 (priority 2007, published 2009).

The assay deals with T1, hALDH2 (recombinant human mitochondria ALDH) (Homo sapiens, UniProt P05091).
T1 sequence (P05091 18-517): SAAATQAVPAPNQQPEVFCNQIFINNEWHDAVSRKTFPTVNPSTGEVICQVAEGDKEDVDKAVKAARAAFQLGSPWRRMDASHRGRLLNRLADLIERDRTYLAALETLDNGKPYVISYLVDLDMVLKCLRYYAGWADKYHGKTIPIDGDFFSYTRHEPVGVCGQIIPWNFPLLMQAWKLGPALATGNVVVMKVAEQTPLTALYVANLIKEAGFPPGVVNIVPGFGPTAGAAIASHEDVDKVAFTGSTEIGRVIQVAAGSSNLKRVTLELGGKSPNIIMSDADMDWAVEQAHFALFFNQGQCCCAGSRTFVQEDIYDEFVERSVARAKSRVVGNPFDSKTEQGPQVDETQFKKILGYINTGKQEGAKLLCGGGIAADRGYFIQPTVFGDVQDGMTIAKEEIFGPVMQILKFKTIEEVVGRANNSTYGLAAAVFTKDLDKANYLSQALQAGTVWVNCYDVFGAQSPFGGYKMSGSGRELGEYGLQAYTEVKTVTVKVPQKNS
The assay can be described thus: ALDH2 inhibition assay (NADH formation, formaldehyde substrate). In kind it is biochemical. The note with it: for inhibition at 1 µM: read-out: hALDH2 inhibition (IC50 hALDH2 column). As to the method:
ALDH2 inhibition assays were performed in sodium phosphate buffer (50 mM, pH 7.4) containing 1.2 mM NAD^+ (Sigma N7004), 1 nM hALDH2 (recombinant human mitochondria ALDH), various concentrations of test compounds (from 0.03 nM to 1000 nM), and 0.15 mM freshly prepared formaldehyde solution (Ladd Research 20295). Reactions were initiated by the addition of formaldehyde and rates were recorded by monitoring NADH formation in a temperature controlled (25° C.) FluoroMax-2 Fluorimeter with excitation and emission wavelengths set at 340 and 460 nm, respectively. […] Normally, IC50 values were determined by fitting concentration-inhibition data to sigmoidal dose-response curves with two-floating parameters: IC50 and Hill coefficient. When tight binding situation was suspected, apparent Ki values were estimated by fitting dose-response data to Morrison's equation [Methods in Enzymology 63, 437-467, 1979].

As usually defined, the IC50 is the concentration needed to halve the response being measured. In general, inhibition refers to the share of the control response that was lost under treatment.

`COc1ccc(-c2nc(COc3ccc4c(=O)c(-c5ccc(O)cc5)coc4c3)no2)cc1C(F)(F)F`: the IC50 was found to be 20 nM.
The same measure, in the same setting: the value for “3-(4-hydroxyphenyl)-7-[(6-pyrazolyl(3-pyridyl))methoxy]chromen-4-one [PT-52]” was 10 nM; that for “7-{2-[4-(3-chlorophenyl)piperazinyl]ethoxy}-3-(4-hydroxyphenyl)chromen-4-one [PT-123]” was 11 nM; that for “7-{2-[4-(4-chlorophenyl)pyrazolyl]ethoxy}-3-(4-hydroxyphenyl)chromen-4-one [PT-51]” was 110 nM.
Still for that read-out and setting: the value for “7-{3-[4-(4-chlorophenyl)pyrazolyl]propoxy}-3-(4-hydroxyphenyl)chromen-4-one [PT-106]” was 110 nM.
For the molecule `N#Cc1ccc(-c2coc3cc(OCc4noc(-c5cc(F)cc(C(F)(F)F)c5)n4)ccc3c2=O)cc1` [PT-1, 4-[7-({5-[3-fluoro-5-(trifluoromethyl)phenyl](1,2,4-oxadiazol-3-yl)}methoxy)-4-oxochromen-3-yl]benzenecarbonitrile], the inhibition at 1 µM turned out to be 17%.
As for `CCOC(=O)c1cccc(-c2coc3cc(OCc4noc(-c5cc(F)cc(C(F)(F)F)c5)n4)ccc3c2=O)c1` [PT-3, ethyl 3-[7-({5-[3-fluoro-5-(trifluoromethyl)phenyl](1,2,4-oxadiazol-3-yl)}methoxy)-4-oxochromen-3-yl]benzoate], the inhibition at 1 µM amounted to 22%.
Take `Cc1nc(-c2ccc(C(F)(F)F)cc2)sc1COc1ccc2c(=O)c(-c3ccc(O)cc3)coc2c1` [PT-4, 3-(4-hydroxyphenyl)-7-({4-methyl-2-[4-(trifluoromethyl)phenyl](1,3-thiazol-5-yl)}methoxy)chromen-4-one]: the concentration for half-maximal inhibition (IC50) was 200 nM.
With `Cc1ccc(S(=O)(=O)Nc2ccc(-c3coc4cc(OCc5sc(-c6ccc(C(F)(F)F)cc6)nc5C)ccc4c3=O)cc2)cc1` [PT-5, 3-(4-{[(4-methylphenyl)sulfonyl]amino}phenyl)-7-({4-methyl-2-[4-(trifluoromethyl)phenyl](1,3-thiazol-5-yl)}methoxy)chromen-4-one], the inhibition at 1 µM was determined as 0.19%.
As to `COC(=O)c1cccc(COc2ccc3c(=O)c(-c4ccc(OC)nc4)coc3c2)c1` [PT-6, methyl 3-{[3-(6-methoxy(3-pyridyl))-4-oxochromen-7-yloxy]methyl}benzoate], the inhibition at 1 µM is 16%.
In the case of `COC(=O)c1cccc(COc2ccc3c(=O)c(-c4ccc(CO)cc4)coc3c2)c1` [PT-7, methyl 3-({3-[4-(hydroxymethyl)phenyl]-4-oxochromen-7-yloxy}methyl)benzoate], the inhibition at 1 µM was 75%.
As for `CS(=O)(=O)Nc1ccc(-c2coc3cc(OCc4nc(-c5cc(F)cc(C(F)(F)F)c5)no4)ccc3c2=O)cc1` [PT-8, 7-({3-[5-fluoro-3-(trifluoromethyl)phenyl](1,2,4-oxadiazol-5-yl)}methoxy)-3-{4-[(methylsulfonyl)amino]phenyl}chromen-4-one], the inhibition at 1 µM came to 57%.
For the molecule `N#Cc1cc(-c2coc3cc(OCc4noc(-c5cc(F)cc(C(F)(F)F)c5)n4)ccc3c2=O)ccc1F` [PT-9, 2-fluoro-5-[7-({5-[5-fluoro-3-(trifluoromethyl)phenyl](1,2,4-oxadiazol-3-yl)}methoxy)-4-oxochromen-3-yl]benzenecarbonitrile], the inhibition at 1 µM stood at 24%.
Take `CCOC(=O)COc1ccc(-c2coc3cc(OCC(=O)OCC)ccc3c2=O)cc1` [PT-10, ethyl 2-(3-{4-[(ethoxycarbonyl)methoxy]phenyl}-4-oxochromen-7-yloxy)acetate]: the inhibition at 1 µM came out at 60%.
Regarding `O=c1c(-c2ccc(O)cc2)coc2cc(OCc3coc(-c4cccc(C(F)(F)F)c4)n3)ccc12` [PT-12, 3-(4-hydroxyphenyl)-7-({2-[3-(trifluoromethyl)phenyl](1,3-oxazol-4-yl)}methoxy)chromen-4-one], the IC50 is 3 nM.
In the case of `O=c1c(-c2ccc(O)cc2)coc2cc(OCc3coc(-c4cc(F)cc(C(F)(F)F)c4)n3)ccc12` [PT-13, 7-({2-[5-fluoro-3-(trifluoromethyl)phenyl](1,3-oxazol-4-yl)}methoxy)-3-(4-hydroxyphenyl)chromen-4-one], the IC50 was 20 nM.
On the same count and under the same terms, the value for `O=c1c(-c2ccc(O)cc2)coc2cc(OCc3coc(-c4cc(F)cc(F)c4)n3)ccc12` [PT-14, 7-{[2-(3,5-difluorophenyl)(1,3-oxazol-4-yl)]methoxy}-3-(4-hydroxyphenyl)chromen-4-one] was 60 nM.
Same read-out and setting: with `O=c1c(-c2ccc(O)cc2)coc2cc(OCc3coc(-c4ccc(F)c(F)c4)n3)ccc12` [PT-15, 7-{[2-(3,4-difluorophenyl)(1,3-oxazol-4-yl)]methoxy}-3-(4-hydroxyphenyl)chromen-4-one] the figure was 120 nM; with `O=c1c(-c2ccc(O)cc2)coc2cc(OCc3coc(-c4ccc(F)cc4)n3)ccc12` [PT-16, 7-{[2-(4-fluorophenyl)(1,3-oxazol-4-yl)]methoxy}-3-(4-hydroxyphenyl)chromen-4-one], 47 nM; with `O=c1c(-c2ccc(O)cc2)coc2cc(OCc3coc(-c4ccc(Cl)cc4)n3)ccc12` [PT-17, 7-{[2-(4-chlorophenyl)(1,3-oxazol-4-yl)]methoxy}-3-(4-hydroxyphenyl)chromen-4-one], 573 nM.
Take `O=c1c(-c2ccc(O)cc2)coc2cc(OCc3noc(-c4ccccc4)n3)ccc12` [PT-24, 3-(4-hydroxyphenyl)-7-[(5-phenyl(1,2,4-oxadiazol-3-yl))methoxy]chromen-4-one]: the IC50 stood at 160 nM.
Consider `N#Cc1cccc(COc2ccc3c(=O)c(-c4ccc(O)cc4)coc3c2)c1` [PT-25, 3-{[3-(4-hydroxyphenyl)-4-oxochromen-7-yloxy]methyl}benzenecarbonitrile], for which the half-inhibitory concentration (IC50) was determined as 4 nM.
The same measure, in the same setting: the value for `O=c1c(-c2ccc(O)cc2)coc2cc(OCc3cccc(C(F)(F)F)c3)ccc12` [PT-26, 3-(4-hydroxyphenyl)-7-{[3-(trifluoromethyl)phenyl]methoxy}chromen-4-one] was 34 nM; that for `O=c1c(-c2ccc(O)cc2)coc2cc(OCc3cc(F)cc(C(F)(F)F)c3)ccc12` [PT-28, 7-{[3-fluoro-5-(trifluoromethyl)phenyl]methoxy}-3-(4-hydroxyphenyl)chromen-4-one] was 58 nM; that for `O=c1c(-c2ccc(O)cc2)coc2cc(OCc3noc(-c4cc(F)cc(C(F)(F)F)c4)n3)ccc12` [PT-29, 7-({5-[3-fluoro-5-(trifluoromethyl)phenyl](1,2,4-oxadiazol-3-yl)}methoxy)-3-(4-hydroxyphenyl)chromen-4-one] was 10 nM.
Consider `O=c1c(-c2ccc(O)cc2)coc2cc(OCc3noc(-c4ccc(F)c(C(F)(F)F)c4)n3)ccc12` [PT-30, 7-({5-[4-fluoro-3-(trifluoromethyl)phenyl](1,2,4-oxadiazol-3-yl)}methoxy)-3-(4-hydroxyphenyl)chromen-4-one], for which the IC50 was found to be 100 nM.
The same measure, in the same setting: the value for `O=c1c(-c2ccc(O)cc2)coc2cc(OCc3noc(-c4cc(C(F)(F)F)ccc4C(F)(F)F)n3)ccc12` [PT-31, 7-({5-[2,5-bis(trifluoromethyl)phenyl](1,2,4-oxadiazol-3-yl)}methoxy)-3-(4-hydroxyphenyl)chromen-4-one] was 20 nM; that for `C=CCOC(=O)c1cccc(-c2nc(COc3ccc4c(=O)c(-c5ccc(O)cc5)coc4c3)no2)c1` [PT-32, prop-2-enyl 3-(3-{[3-(4-hydroxyphenyl)-4-oxochromen-7-yloxy]methyl}-1,2,4-oxadiazol-5-yl)benzoate] was 1150 nM; that for `CC(C)OC(=O)c1cccc(COc2ccc3c(=O)c(-c4ccc(O)cc4)coc3c2)c1` [PT-35, methylethyl 3-{[3-(4-hydroxyphenyl)-4-oxochromen-7-yloxy]methyl}benzoate] was 20 nM.
As for `O=C(O)c1ccc(COc2ccc3c(=O)c(-c4ccc(O)cc4)coc3c2)cc1` [PT-36, 4-{[3-(4-hydroxyphenyl)-4-oxochromen-7-yloxy]methyl}benzoic acid], the IC50 amounted to 170 nM.
Take `NC(=O)c1ccc(COc2ccc3c(=O)c(-c4ccc(O)cc4)coc3c2)cc1` [PT-37, 4-{[3-(4-hydroxyphenyl)-4-oxochromen-7-yloxy]methyl}benzamide]: the IC50 was 380 nM.
On to `O=c1c(-c2ccc(O)cc2)coc2cc(OCc3noc(-c4ccc(C(F)(F)F)cc4)n3)ccc12` [PT-38, 3-(4-hydroxyphenyl)-7-({5-[4-(trifluoromethyl)phenyl](1,2,4-oxadiazol-3-yl)}methoxy)chromen-4-one], for which the IC50 turned out to be 600 nM.
On the same count and under the same terms, the value for `O=c1c(-c2ccc(O)cc2)coc2cc(OCc3noc(-c4cc(C(F)(F)F)cc(C(F)(F)F)c4)n3)ccc12` [PT-39, 7-({5-[3,5-bis(trifluoromethyl)phenyl](1,2,4-oxadiazol-3-yl)}methoxy)-3-(4-hydroxyphenyl)chromen-4-one] was 130 nM.
